This data set is described as follows: Stability of crystalline compound M and Saxagliptin monohydrate form H-1 on storage, measured by HPLC. It is filed as physicochemical. Here is the method: Unless stated otherwise, the HPLC peak % referred to herein were measured using a UV detection having a wavelength of 220 nm.
Instrumental and Chromatographic Conditions
Instrument: HPLC system equipped with UV detector.
• Flow rate: about 1 mL/min • Injection volume: about 10 μL • Column: Waters XBridge C8, 150 mm×4.6 mm, 3.5 μm • Column temperature: 25° C. • Detector: DAD (UV) at wavelengths 220 nm • Mobile phase: Gradient elution with Solution A and Solution B (see Table 1) • Solution A: Buffer solution. Dissolve in water about 24.0 g of sodium octyl-1-sulfonate in 1000 mL volumetric flask, make up to the volume with water and adjust pH to 3.3 with phosphoric acid. • Solution B: Acetonitrile, HPLC grade
• Stop time: 25 minutes • Post time: 5 minutes • Diluent: Prepare a solution of 25% acetonitrile, 25% methanol, and 50% of the buffer solution (the one that is used in gradient elution). The Following Chemicals (or Equivalent) Should Be Used:
• 1. Blank: Use the diluent. • 2. Sample preparation: Prepare SXG sample solution with concentration of about 1.0 mg/mL prepare in duplicate Procedure
Samples of crystalline compound M and Saxagliptin monohydrate form H-1 were prepared and the amount of Saxagliptin and the amount of cyclic amidine were measured by HPLC at time zero (=time 0). Samples of crystalline compound M and Saxagliptin monohydrate form H-1 were maintained for 2 weeks, 1 month and 2 months, at the conditions described in the following table. Afterwards, the amount of Saxagliptin and the amount of cyclic amidine was measured by HPLC.

For `N#C[C@@H]1C[C@@H]2C[C@@H]2N1C(=O)[C@@H](N)C12CC3CC(CC(O)(C3)C1)C2` [Saxaglitpin base monohydrate, Form H-1, (1S,3S,5S)-2-((2S)-2-Amino-2-(3-hydroxyadamantan-1-yl)-acetyl)-2-azabicyclo[3.1.0]hexane-3-carbonitrile], the “CA = cyclic amidine (amount by HPLC)” value was “CA = 5.8%” (40° C./40% RH, 1 month); “CA = 11.5%” (40° C./40% RH, 2 months); “CA = 4.0%” (40° C./40% RH, 2 weeks); “CA = 0.50%” (40° C./40% RH, Time 0); “CA = 1.3%” (50° C./0% RH, 1 month); “CA = 2.1%” (50° C./0% RH, 2 months). In addition, the “CA = cyclic amidine (amount by HPLC)” value runs as follows: (50° C./0% RH, 2 weeks) “CA = 1.2%”; (50° C./0% RH, Time 0) “CA = 0.50%”. Further, the “RRT1.14 (impurity amount by HPLC)” value was “RRT1.14 = 4.1%” (40° C./40% RH, 1 month); “RRT1.14 = 7.7%” (40° C./40% RH, 2 months); “RRT1.14 = 2.1%” (40° C./40% RH, 2 weeks); “RRT1.14 = 1.1%” (50° C./0% RH, 1 month); “RRT1.14 = 2.51%” (50° C./0% RH, 2 months); “RRT1.14 = 0.4%” (50° C./0% RH, 2 weeks). In addition, the “SXG = Saxagliptin (amount by HPLC)” value reads like this: (40° C./40% RH, 1 month) “SXG = 86.8%”; (40° C./40% RH, 2 months) “SXG = 77.4%”; (40° C./40% RH, 2 weeks) “SXG = 93.1%”; (40° C./40% RH, Time 0) “SXG = 98.9%”; (50° C./0% RH, 1 month) “SXG = 96.9%”; (50° C./0% RH, 2 months) “SXG = 94.8%”. In addition, the “SXG = Saxagliptin (amount by HPLC)” value (50° C./0% RH, 2 weeks) is listed as “SXG = 97.8%” and the “SXG = Saxagliptin (amount by HPLC)” value (50° C./0% RH, Time 0) was “SXG = 98.9%”.
Turning to `CC(C)=N[C@H](C(=O)N1[C@H](C#N)C[C@@H]2C[C@@H]21)C12CC3CC(CC(O)(C3)C1)C2` [crystalline Compound M, (1S,3S,5S)-2-[(2S)-2-propan-2-ylideneamino-2-(3-hydroxy-1-adamantyl)acetyl]-2-azabicyclo[3.1.0]-hexane-3-carbonitrile], the “CA = cyclic amidine (amount by HPLC)” value by setting is: (40° C./40% RH, 1 month) “CA = 0.50%”; (40° C./40% RH, 2 months) “CA = 0.61%”; (40° C./40% RH, 2 weeks) “CA = 0.53%”; (40° C./40% RH, Time 0) “CA = 0.20%”; (50° C./0% RH, 1 month) “CA = 0.27%”; (50° C./0% RH, 2 months) “CA = 0.31%”. Moreover, the “CA = cyclic amidine (amount by HPLC)” value is reported as “CA = 0.25%” (50° C./0% RH, 2 weeks) and “CA = 0.20%” (50° C./0% RH, Time 0). In addition, the “SXG = Saxagliptin (amount by HPLC)” value (40° C./40% RH, 1 month) was “SXG = 99.0%”; the “SXG = Saxagliptin (amount by HPLC)” value (40° C./40% RH, 2 months) was “SXG = 99.0%”; the “SXG = Saxagliptin (amount by HPLC)” value (40° C./40% RH, 2 weeks) is on record as “SXG = 99.0%”; the “SXG = Saxagliptin (amount by HPLC)” value (40° C./40% RH, Time 0) is reported as “SXG = 99.6%”; the “SXG = Saxagliptin (amount by HPLC)” value (50° C./0% RH, 1 month) was “SXG = 99.4%”; the “SXG = Saxagliptin (amount by HPLC)” value (50° C./0% RH, 2 months) was “SXG = 99.4%”. The “SXG = Saxagliptin (amount by HPLC)” value is on record as “SXG = 99.6%” (50° C./0% RH, 2 weeks) and “SXG = 99.6%” (50° C./0% RH, Time 0). Also, under “compared to Saxagliptin monohydrate form H-1”, the chemical stability entry is “enhanced chemical stability”.

The values are drawn from patent US8501960B2, “Saxagliptin intermediates, saxagliptin polymorphs, and processes for preparation thereof” (Assia Chemical Industries Ltd., priority 2010, dated 2013).
